In US8163766B2, “Beta-secretase modulators and methods of use” (Amgen Inc., priority 2005, dated 2012):

Test system: Aβ 40 in conditioned media of cells stably expressing Amyloid Precursor Protein (APP)
Test: BACE Cell-Based Assay (Aβ40 in conditioned medium, sandwich ELISA)
Details: 24 hours of incubation with the test compounds, Aβ 40 by sandwich ELISA, read-out: IC50 values in the cell-based assay (inhibition of Aβ 40)
Summary of the method: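 IC50 derived from Aβ40 reduction in supernatants, quantified by europium time-resolved fluorescence ELISA with pAb40/biotin-6E10 antibodies incubated at 4°C. Cells stably expressing APP received compound for 24 h, ten concentrations from 100 μM or 10 μM top, final DMSO 0.1%.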

Row | Compound | IC50
1 | O=C(N[C@@H](Cc1ccccc1)[C@H](O)CN[C@H]1CC2(CCCC2)Oc2ccccc21)c1cc(-c2ccccn2)c(=O)n(C2CCCC2)c1 [Example 150, 1-cyclopentyl-N-((2S,3R)-4-((S)-2,2-spirocyclopentylchroman-4-ylamino)-3-hydroxy-1-phenylbutan-2-yl)-6-oxo-5-(pyridin-2-yl)-1,6-dihydropyridine-3-carboxamide] | ≤ 5 µM
2 | O=C(N[C@@H](Cc1ccccc1)[C@H](O)CN[C@H]1CC2(CCC2)Oc2ccccc21)c1cc(N2CCCC2=O)c(=O)n(C2CCCC2)c1 [Example 152, 1-cyclopentyl-N-((2S,3R)-4-((S)-2,2-spirocyclobutylchroman-4-ylamino)-3-hydroxy-1-phenylbutan-2-yl)-6-oxo-5-(2-oxopyrrolidin-1-yl)-1,6-dihydropyridine-3-carboxamide] | ≤ 5 µM
3 | CCc1ccc2c(c1)[C@@H](NC[C@@H](O)[C@H](Cc1ccccc1)NC(=O)c1cc(-c3ccccc3F)c(=O)n3c1CCC3C)CC1(CCCC1)O2 (some centres unmarked) [Example 159] | ≤ 5 µM
4 | CCc1ccc2c(c1)[C@H](NC[C@@H](O)[C@H](Cc1ccccc1)NC(=O)c1cc(-c3ccccn3)c(=O)n(C(C)C)c1)CC1(CCCC1)O2 [Example 165, N-((2S,3R)-4((R)-6-ethyl-2,2-spirocyclopentylchroman-4-ylamino)-3-hydroxy-1-phenylbutan-2-yl)-1-isopropyl-6-oxo-5-(pyridin-2-yl)-1,6-dihydropyridine-3-carboxamide] | ≤ 5 µM
5 | O=C(N[C@@H](Cc1ccccc1)[C@H](O)CN[C@H]1CC2(CCC2)Nc2ccc(Br)cc21)c1cc(-c2ccccn2)c(=O)n(C2CCCC2)c1 [Example 471, N-((1S,2R)-3-(((4′S)-6′-bromo-3′,4′-dihydro-1′H-spiro[cyclobutane-1,2′-quinolin]-4′-yl)amino)-2-hydroxy-1-(phenylmethyl)propyl)-1′-cyclopentyl-2′-oxo-1′,2′-dihydro-2,3′-bipyridine-5′-carboxamide] | ≤ 5 µM
6 | O=C(N[C@@H](Cc1ccc(F)cc1)[C@H](O)CN[C@H]1CC2(CCC2)Oc2cc(F)c(-n3cccn3)cc21)C1CC1 [Example 472, N-((1S,2R)-1-((4-fluorophenyl)methyl)-3-(((4S)-7-fluoro-6-(1H-pyrazol-1-yl)-3,4-dihydrospiro[chromene-2,1′-cyclobutan]-4-yl)amino)-2-hydroxypropyl)cyclopropanecarboxamide] | ≤ 5 µM
7 | O=C(N[C@@H](Cc1ccc(F)cc1)[C@H](O)CN[C@H]1CC2(CCC2)Oc2cc(F)c(-n3cccn3)cc21)C1CCC1 [Example 473, N-((1S,2R)-1-((4-fluorophenyl)methyl)-3-(((4S)-7-fluoro-6-(1H-pyrazol-1-yl)-3,4-dihydrospiro[chromene-2,1′-cyclobutan]-4-yl)amino)-2-hydroxypropyl)cyclobutanecarboxamide] | ≤ 5 µM
8 | CCc1ccc2c(c1)[C@@H](NCC(=O)[C@H](Cc1ccccc1)NC(=O)[C@@H]1CN(C(=O)N3CCCCC3)CCO1)CC(C)(C)O2 [Example 475, (2S)-N-((1S)-3-(((4S)-6-ethyl-2,2-dimethyl-3,4-dihydro-2H-chromen-4-yl)amino)-2-oxo-1-(phenylmethyl)propyl)-4-(1-piperidinylcarbonyl)-2-morpholinecarboxamide] | ≤ 5 µM
9 | O=C(N[C@@H](Cc1ccccc1)[C@H](O)CN[C@H]1CC2(CCC2)Oc2ccccc21)c1cc(-c2ccccn2)c(=O)n(C2CCCC2)c1 [Example 476, 1′-cyclopentyl-N-((1S,2R)-3-((4S)-3,4-dihydrospiro[chromene-2,1′-cyclobutan]-4-ylamino)-2-hydroxy-1-(phenylmethyl)propyl)-2′-oxo-1′,2′-dihydro-2,3′-bipyridine-5′-carboxamide] | ≤ 5 µM
10 | CC#CC[C@H](NC(=O)c1cc(-c2ccccn2)c(=O)n(C2CCCC2)c1)[C@H](O)CN[C@H]1CC2(CCC2)Oc2ccc(CC)cc21 [Example 477, 1′-cyclopentyl-N-((1S)-1-((1R)-2-(((4S)-6-ethyl-3,4-dihydrospiro[chromene-2,1′-cyclobutan]-4-yl)amino)-1-hydroxyethyl)-3-pentyn-1-yl)-2′-oxo-1′,2′-dihydro-2,3′-bipyridine-5′-carboxamide] | ≤ 5 µM

Other lines, results leading:

Row | IC50 | Compound
11 | ≤ 5 µM | CCc1ccc2c(c1)[C@@H](NC[C@@H](O)[C@H](Cc1ccccc1)NC(=O)c1ccc(=O)n(C3CCCC3)n1)CC1(CCC1)O2 [Example 151, 1-cyclopentyl-N-((2S,3R)-4-((S)-6-ethyl-2,2-spirocyclo-butylchroman-4-ylamino)-3-hydroxy-1-phenylbutan-2-yl)-6-oxo-1,6-dihydropyridazine-3-carboxamide]
12 | ≤ 5 µM | O=C(N[C@@H](Cc1ccccc1)[C@H](O)CN[C@H]1CC2(CCC2)Oc2ccccc21)c1ccc(=O)n(C2CCCC2)c1 [Example 153, 1-cyclopentyl-N-((2S,3R)-4-((S)-2,2-spirocyclobutylchroman-4-ylamino)-3-hydroxy-1-phenylbutan-2-yl)-6-oxo-1,6-dihydropyridine-3-carboxamide]
13 | ≤ 5 µM | CCc1ccc2c(c1)[C@@H](NC[C@@H](O)[C@H](Cc1ccccc1)NC(=O)c1cn(C3CCCC3)c(=O)c3ccccc13)CC1(CCCC1)O2 [Example 158, 2-cyclopentyl-N-((2S,3R)-4-((S)-6-ethyl-2,2-spirocyclopentylchroman-4-ylamino)-3-hydroxy-1-phenylbutan-2-yl)-1-oxo-1,2-dihydroisoquinoline-4-carboxamide]
14 | ≤ 5 µM | CCc1ccc2c(c1)[C@@H](NC[C@@H](O)[C@H](Cc1ccccc1)NC(=O)c1ccc(=O)n(C3CCCCC3)c1)CC1(CCCC1)O2 [Example 160]
15 | ≤ 5 µM | CCc1ccc2c(c1)[C@@H](NC[C@@H](O)[C@H](Cc1ccccc1)NC(=O)c1ccc(=O)n(C3CCCC(C)C3)c1)CC1(CCCC1)O2 (some centres unmarked) [Example 161]
16 | ≤ 5 µM | CCc1ccc2c(c1)[C@@H](NC[C@@H](O)[C@H](Cc1ccccc1)NC(=O)c1cn(C3CCCC3)c(=O)c3ccccc13)CC1(CCC1)O2 [Example 162]
17 | ≤ 5 µM | CCc1ccc2c(c1)[C@@H](NC[C@@H](O)[C@H](Cc1ccccc1)NC(=O)c1ccc(=O)n(C3CCCC3)c1)CC(C)(C)O2 [Example 163]
18 | ≤ 5 µM | CCc1ccc2c(c1)C(NC[C@@H](O)[C@H](Cc1ccccc1)NC(=O)c1cc(-c3ccccn3)c(=O)n(C3CCCC3)c1)CC1(CCC1)O2 (stereo partly drawn) [Example 164, 1-Cyclopentyl-N-((2S,3R)-4-((S)-6-ethyl-2,2-spirocyclobutylchroman-4-ylamino)-3-hydroxy-1-phenylbutan-2-yl)-6-oxo-5-(pyridin-2-yl)-1,6-dihydropyridine-3-carboxamide]
19 | ≤ 5 µM | C[C@@H](N[C@H]1CC(C)(C)Oc2ccc(Br)cc21)[C@H](O)[C@H](Cc1ccccc1)NC(=O)c1cc(-c2ccccn2)c(=O)n(C2CCCC2)c1 [Example 480, N-((1S,2S,3R)-3-(((4S)-6-bromo-2,2-dimethyl-3,4-dihydro-2H-chromen-4-yl)amino)-2-hydroxy-1-(phenylmethyl)butyl)-1′-cyclopentyl-2′-oxo-1′,2′-dihydro-2,3′-bipyridine-5′-carboxamide]
20 | ≤ 5 µM | CC1(C)C[C@@H](NC[C@@H](O)[C@H](Cc2ccccc2)NC(=O)c2cc(-c3ccccn3)c(=O)n(C3CCCC3)c2)c2cc(Br)ccc2N1 [Example 481, N-((1S,2R)-3-(((4R)-6-bromo-2,2-dimethyl-1,2,3,4-tetrahydro-4-quinolinyl)amino)-2-hydroxy-1-(phenylmethyl)propyl)-1′-cyclopentyl-2′-oxo-1′,2′-dihydro-2,3′-bipyridine-5′-carboxamide]
